In US20240398805A1, “QUINAZOLINE DERIVED COMPOUNDS AS EGFR INHIBITORS AND THEIR USES THEREOF” (ACCUTAR BIOTECHNOLOGY INC., priority 2021, published 2024):

Key:
Type in all cases: cell-based
[1] = test system: HCC827-SVD cells (human EGFR exon 20 insertion mutant D770_N771 insSVD); experiment: Cell growth inhibition (CellTiter-Glo, 3 days) in HCC827-SVD; settings: 72 h, 3 days after administration
Summary of the method: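 HCC827 cells carrying lentiviral codon-optimized EGFR D770_N771 insSVD, with endogenous EGFR knocked out by CRISPR (single clone), seeded at 5000 cells/well in RPMI with 10% FBS. Viability read by CellTiter-Glo luminescence.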

[2] = test system: HCC827-YVMA cells (human ERBB2 exon20 insertion mutant A775_G776ins YVMA); experiment: Cell growth inhibition (CellTiter-Glo, 3 days) in HCC827-YVMA; settings: 72 h, 3 days after administration
Summary of the method: (§1)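 Growth inhibition used a CellTiter-Glo luminescence read-out after 3 days of compound exposure at various concentrations. Cells were plated the day before at 5000/well in RPMI plus 10% FBS. The lines are HCC827 transduced by lentivirus with codon-optimized EGFR ASV or ERBB2 YVMA exon 20 insertions.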

[3] = test system: HCC827 cells; experiment: Cell growth inhibition (CellTiter-Glo, 3 days) in HCC827; settings: Homo sapiens, 72 h, 3 days after administration
Summary of the method: (§2)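 Growth inhibition was scored by CellTiter-Glo luminescence after 3-day compound exposure at various concentrations. Cells were plated at 5000/well the day before treatment: A431 in DMEM and HCC827 in RPMI, each with 10% FBS.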

[4] = test system: HCC827-ASV cells (human EGFR exon 20 insertion mutant A769_D770insASV); experiment: Cell growth inhibition (CellTiter-Glo, 3 days) in HCC827-ASV; settings: 72 h, 3 days after administration
Summary of the method: as §1

[5] = test system: A431 cells; experiment: Cell growth inhibition (CellTiter-Glo, 3 days) in A431; settings: Homo sapiens, A-431, 72 h, 3 days after administration
Summary of the method: as §2

Q: `C=CC(=O)N1CCC(Nc2cc3c(Nc4ccc(Oc5ccn(-c6cnc(C)c(F)c6)n5)c(Cl)c4)ncnc3cc2OC)CC1` [Example 20, 1-(4-((4-((3-chloro-4-((1-(5-fluoro-6-methylpyridin-3-yl)-1H-pyrazol-3-yl)oxy)phenyl)amino)-7-methoxyquinazolin-6-yl)amino)piperidin-1-yl)prop-2-en-1-one] was tested. Which GI50 [1] did it give?
A: 100 to 300 nM

Q: What about the GI50 [2] of the same compound?
A: 100 to 300 nM

Q: What about the GI50 [3] of the same compound?
A: 30 to 60 nM

Q: What about the GI50 [4] of the same compound?
A: 60 to 100 nM

Q: And the GI50 [5]?
A: 100 to 300 nM

Q: With `C=C(F)C(=O)N1CCC(Nc2cc3c(Nc4ccc(Oc5ccn(-c6cnc(C)c(F)c6)n5)cc4F)ncnc3cc2OC)CC1` [Example 23, 2-fluoro-1-(4-((4-((2-fluoro-4-((1-(5-fluoro-6-methylpyridin-3-yl)-1H-pyrazol-3-yl)oxy)phenyl)amino)-7-methoxyquinazolin-6-yl)amino)piperidin-1-yl)prop-2-en-1-one] as the compound, how does the GI50 [1] read?
A: ≥ 1000 nM

Q: And the GI50 [2]?
A: 600 to 1000 nM

Q: What about the GI50 [3] of the same compound?
A: ≥ 1000 nM

Q: What about the GI50 [4] of the same compound?
A: ≥ 1000 nM

Q: And the GI50 [5]?
A: ≥ 1000 nM

Q: What does the source list for `CC#CC(=O)N1CCC(Nc2cc3c(Nc4ccc(Oc5ccn(-c6cnc(C)c(F)c6)n5)cc4F)ncnc3cc2OC)CC1` [Example 24, 1-(4-((4-((2-fluoro-4-((1-(5-fluoro-6-methylpyridin-3-yl)-1H-pyrazol-3-yl)oxy)phenyl)amino)-7-methoxyquinazolin-6-yl)amino)piperidin-1-yl)but-2-yn-1-one]?
A: GI50 [1]: ≥ 1000 nM; GI50 [2]: ≥ 1000 nM; GI50 [3]: ≥ 1000 nM; GI50 [4]: ≥ 1000 nM; GI50 [5]: ≥ 1000 nM

Q: For `C=C(F)C(=O)N1CCC(Nc2cc3c(Nc4ccc(Oc5ccn(-c6ccc(C)nc6)n5)cc4F)ncnc3cc2OC)CC1` [Example 25, 2-fluoro-1-(4-((4-((2-fluoro-4-((1-(6-methylpyridin-3-yl)-1H-pyrazol-3-yl)oxy)phenyl)amino)-7-methoxyquinazolin-6-yl)amino)piperidin-1-yl)prop-2-en-1-one], which GI50 [1] is on record?
A: ≥ 1000 nM

Q: And the GI50 [2]?
A: ≥ 1000 nM

Q: What about the GI50 [3] of the same compound?
A: ≥ 1000 nM

Q: What about the GI50 [4] of the same compound?
A: ≥ 1000 nM

Q: And the GI50 [5]?
A: ≥ 1000 nM

Q: For `C=CC(=O)N1CCC(Nc2cc3c(Nc4ccc(Oc5nc(-c6ccnn6C)cs5)cc4F)ncnc3cc2OC)CC1` [Example 26, 1-(4-((4-((2-fluoro-4-((4-(1-methyl-1H-pyrazol-5-yl)thiazol-2-yl)oxy)phenyl)amino)-7-methoxyquinazolin-6-yl)amino)piperidin-1-yl)prop-2-en-1-one], which GI50 [1] is on record?
A: 30 to 60 nM

Q: What about the GI50 [2] of the same compound?
A: 30 to 60 nM

Q: What about the GI50 [3] of the same compound?
A: 60 to 100 nM

Q: And the GI50 [4]?
A: 30 to 60 nM

Q: And the GI50 [5]?
A: 100 to 300 nM

Q: Which results are given for `C=CC(=O)N1CCC(Nc2cc3c(Nc4ccc(Oc5ccnc(-c6ccc(C)nc6)c5)cc4F)ncnc3cc2OC)CC1` [Example 27, 1-(4-((4-((2-fluoro-4-((6′-methyl-[2,3′-bipyridin]-4-yl)oxy)phenyl)amino)-7-methoxyquinazolin-6-yl)amino)piperidin-1-yl)prop-2-en-1-one]?
A: GI50 [1]: 60 to 100 nM; GI50 [2]: 60 to 100 nM; GI50 [3]: 100 to 300 nM; GI50 [4]: 30 to 60 nM; GI50 [5]: ≥ 1000 nM

Q: Which GI50 [1] does the source give for `C=CC(=O)N1CCC(Nc2cc3c(Nc4ccc(Oc5nc(-c6cnc(OCC)nc6)cs5)cc4F)ncnc3cc2OC)CC1` [Example 28, 1-(4-((4-((4-((4-(2-ethoxypyrimidin-5-yl)thiazol-2-yl)oxy)-2-fluorophenyl)amino)-7-methoxyquinazolin-6-yl)amino)piperidin-1-yl)prop-2-en-1-one] here?
A: 30 to 60 nM

Q: And the GI50 [2]?
A: 30 to 60 nM

Q: What about the GI50 [3] of the same compound?
A: 100 to 300 nM

Q: What about the GI50 [4] of the same compound?
A: < 30 nM

Q: What about the GI50 [5] of the same compound?
A: 100 to 300 nM

Q: What does the source list for `C=CC(=O)N1CCC(Nc2cc3c(Nc4ccc(Oc5ccn(-c6ccc(C)nn6)n5)cc4F)ncnc3cc2OC)CC1` [Example 29, 1-(4-((4-((2-fluoro-4-((1-(6-methylpyridazin-3-yl)-1H-pyrazol-3-yl)oxy)phenyl)amino)-7-methoxyquinazolin-6-yl)amino)piperidin-1-yl)prop-2-en-1-one]?
A: GI50 [1]: < 30 nM; GI50 [2]: < 30 nM; GI50 [3]: < 30 nM; GI50 [4]: < 30 nM; GI50 [5]: ≥ 1000 nM

Q: With `C=CC(=O)N1CCC(Nc2cc3c(Nc4ccc(Oc5ccn(-c6cc(OC)ncn6)n5)cc4F)ncnc3cc2OC)CC1` [Example 30, 1-(4-((4-((2-fluoro-4-((1-(6-methoxypyrimidin-4-yl)-1H-pyrazol-3-yl)oxy)phenyl)amino)-7-methoxyquinazolin-6-yl)amino)piperidin-1-yl)prop-2-en-1-one] as the compound, how does the GI50 [1] read?
A: 30 to 60 nM

Q: What about the GI50 [2] of the same compound?
A: < 30 nM

Q: And the GI50 [3]?
A: 100 to 300 nM

Q: And the GI50 [4]?
A: < 30 nM

Q: What about the GI50 [5] of the same compound?
A: 300 to 600 nM

Q: Which results are given for `C=CC(=O)N1CCC(Nc2cc3c(Nc4ccc(Oc5nc(-c6cnc(C)nc6)cs5)cc4F)ncnc3cc2OC)CC1` [Example 32, 1-(4-((4-((2-fluoro-4-((4-(2-methylpyrimidin-5-yl)thiazol-2-yl)oxy)phenyl)amino)-7-methoxyquinazolin-6-yl)amino)piperidin-1-yl)prop-2-en-1-one]?
A: GI50 [1]: < 30 nM; GI50 [2]: < 30 nM; GI50 [3]: 60 to 100 nM; GI50 [4]: < 30 nM; GI50 [5]: 100 to 300 nM

Q: For `C=CC(=O)N1CCC(Nc2cc3c(Nc4ccc(Oc5ccn(-c6cnc(C)cn6)n5)cc4F)ncnc3cc2OC)CC1` [Example 33, 1-(4-((4-((2-fluoro-4-((1-(5-methylpyrazin-2-yl)-1H-pyrazol-3-yl)oxy)phenyl)amino)-7-methoxyquinazolin-6-yl)amino)piperidin-1-yl)prop-2-en-1-one], which GI50 [1] is on record?
A: 100 to 300 nM

Q: And the GI50 [2]?
A: 100 to 300 nM

Q: And the GI50 [3]?
A: 300 to 600 nM

Q: And the GI50 [4]?
A: 60 to 100 nM

Q: What about the GI50 [5] of the same compound?
A: 100 to 300 nM

Q: `C=CC(=O)N1CCC(Nc2cc3c(Nc4ccc(Oc5ccn(-c6cnc(C)c(C)c6)n5)cc4F)ncnc3cc2OC)CC1` [Example 36, 1-(4-((4-((4-((1-(5,6-dimethylpyridin-3-yl)-1H-pyrazol-3-yl)oxy)-2-fluorophenyl)amino)-7-methoxyquinazolin-6-yl)amino)piperidin-1-yl)prop-2-en-1-one] was tested. Which GI50 [1] did it give?
A: 30 to 60 nM

Q: What about the GI50 [2] of the same compound?
A: 60 to 100 nM

Q: And the GI50 [3]?
A: 60 to 100 nM

Q: And the GI50 [4]?
A: 60 to 100 nM

Q: And the GI50 [5]?
A: 30 to 60 nM

Q: For `C=CC(=O)N1CCC(Nc2cc3c(Nc4ccc(Oc5ccn(-c6cnc(C)cc6C)n5)cc4F)ncnc3cc2OC)CC1` [Example 37, 1-(4-((4-((4-((1-(4,6-dimethylpyridin-3-yl)-1H-pyrazol-3-yl)oxy)-2-fluorophenyl)amino)-7-methoxyquinazolin-6-yl)amino)piperidin-1-yl)prop-2-en-1-one], which GI50 [1] is on record?
A: < 30 nM

Q: And the GI50 [2]?
A: < 30 nM

Q: And the GI50 [3]?
A: 30 to 60 nM

Q: And the GI50 [4]?
A: < 30 nM

Q: What about the GI50 [5] of the same compound?
A: 300 to 600 nM

Q: For `C=CC(=O)N1CCC(Nc2cc3c(Nc4ccc(Oc5ccn(-c6cnc(C)c(OC)c6)n5)cc4F)ncnc3cc2OC)CC1` [Example 38, 1-(4-((4-((2-fluoro-4-((1-(5-methoxy-6-methylpyridin-3-yl)-1H-pyrazol-3-yl)oxy)phenyl)amino)-7-methoxyquinazolin-6-yl)amino)piperidin-1-yl)prop-2-en-1-one], which GI50 [1] is on record?
A: 30 to 60 nM

Q: And the GI50 [2]?
A: 30 to 60 nM

Q: And the GI50 [3]?
A: 100 to 300 nM

Q: What about the GI50 [4] of the same compound?
A: 30 to 60 nM

Q: What about the GI50 [5] of the same compound?
A: 30 to 60 nM

Q: Which results are given for `C=CC(=O)N1CCC(Nc2cc3c(Nc4ccc(Oc5ccnc(-n6cc(C)cn6)n5)cc4F)ncnc3cc2OC)CC1` [Example 39, 1-(4-((4-((2-fluoro-4-((2-(4-methyl-1H-pyrazol-1-yl)pyrimidin-4-yl)oxy)phenyl)amino)-7-methoxyquinazolin-6-yl)amino)piperidin-1-yl)prop-2-en-1-one]?
A: GI50 [1]: < 30 nM; GI50 [2]: < 30 nM; GI50 [3]: 60 to 100 nM; GI50 [4]: < 30 nM; GI50 [5]: 300 to 600 nM
